Values of other authors as cited in publication PMC9516332 (Frontiers in Oncology, 2022).
Read-outs that look alike come from different tables or passages of the source.

How the values were obtained:
Details in all cases: cited from earlier work
[1] = biological target: panel of 255 wild-type kinases (Homo sapiens, UniProt O00311)
[2] = biological target: T1, panel of 255 wild-type kinases (Homo sapiens, UniProt O15111)
T1 sequence (O15111 1-745): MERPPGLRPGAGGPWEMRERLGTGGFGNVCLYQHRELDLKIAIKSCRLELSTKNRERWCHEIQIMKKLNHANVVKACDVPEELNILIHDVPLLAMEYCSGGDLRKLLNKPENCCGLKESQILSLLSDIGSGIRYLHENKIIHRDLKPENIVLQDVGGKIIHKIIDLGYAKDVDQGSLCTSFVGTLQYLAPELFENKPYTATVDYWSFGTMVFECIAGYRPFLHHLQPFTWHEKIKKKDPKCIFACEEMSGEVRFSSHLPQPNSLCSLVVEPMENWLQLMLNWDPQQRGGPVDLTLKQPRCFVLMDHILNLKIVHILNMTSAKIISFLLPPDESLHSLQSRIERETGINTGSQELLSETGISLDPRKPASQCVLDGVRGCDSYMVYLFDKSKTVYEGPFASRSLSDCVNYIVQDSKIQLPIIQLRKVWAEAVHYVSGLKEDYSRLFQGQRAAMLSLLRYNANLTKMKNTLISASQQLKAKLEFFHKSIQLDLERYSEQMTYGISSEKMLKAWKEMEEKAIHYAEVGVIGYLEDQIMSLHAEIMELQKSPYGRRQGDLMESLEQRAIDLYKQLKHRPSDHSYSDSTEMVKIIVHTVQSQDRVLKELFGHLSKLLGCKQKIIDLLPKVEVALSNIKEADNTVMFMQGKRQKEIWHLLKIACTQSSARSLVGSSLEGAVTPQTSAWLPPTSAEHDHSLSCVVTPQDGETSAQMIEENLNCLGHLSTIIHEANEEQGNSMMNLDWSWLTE

[3] = biological target: T2, panel of 255 wild-type kinases (Homo sapiens, UniProt O43781)
T2 sequence (O43781 1-588): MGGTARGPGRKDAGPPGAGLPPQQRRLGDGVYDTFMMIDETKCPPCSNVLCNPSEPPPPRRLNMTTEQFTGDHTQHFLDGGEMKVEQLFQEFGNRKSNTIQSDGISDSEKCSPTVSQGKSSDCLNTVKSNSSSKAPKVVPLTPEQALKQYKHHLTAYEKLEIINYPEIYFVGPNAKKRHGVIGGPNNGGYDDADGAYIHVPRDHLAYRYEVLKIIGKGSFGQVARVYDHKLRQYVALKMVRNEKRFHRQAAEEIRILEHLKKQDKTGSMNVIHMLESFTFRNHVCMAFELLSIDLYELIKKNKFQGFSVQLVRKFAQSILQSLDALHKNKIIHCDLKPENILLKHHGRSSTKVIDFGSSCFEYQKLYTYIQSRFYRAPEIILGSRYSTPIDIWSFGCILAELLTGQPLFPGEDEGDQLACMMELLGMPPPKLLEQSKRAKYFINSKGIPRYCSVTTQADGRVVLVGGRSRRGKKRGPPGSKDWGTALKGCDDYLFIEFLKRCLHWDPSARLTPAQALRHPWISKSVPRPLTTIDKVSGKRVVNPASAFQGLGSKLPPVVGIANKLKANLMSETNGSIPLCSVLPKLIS

[4] = biological target: panel of 255 wild-type kinases (Homo sapiens, UniProt P27448)
[5] = biological target: panel of 255 wild-type kinases (Homo sapiens, UniProt P49674)
[6] = biological target: panel of 255 wild-type kinases (Homo sapiens, UniProt P78368)
[7] = biological target: T3, panel of 255 wild-type kinases (Homo sapiens, UniProt Q13188)
T3 sequence (Q13188 1-491): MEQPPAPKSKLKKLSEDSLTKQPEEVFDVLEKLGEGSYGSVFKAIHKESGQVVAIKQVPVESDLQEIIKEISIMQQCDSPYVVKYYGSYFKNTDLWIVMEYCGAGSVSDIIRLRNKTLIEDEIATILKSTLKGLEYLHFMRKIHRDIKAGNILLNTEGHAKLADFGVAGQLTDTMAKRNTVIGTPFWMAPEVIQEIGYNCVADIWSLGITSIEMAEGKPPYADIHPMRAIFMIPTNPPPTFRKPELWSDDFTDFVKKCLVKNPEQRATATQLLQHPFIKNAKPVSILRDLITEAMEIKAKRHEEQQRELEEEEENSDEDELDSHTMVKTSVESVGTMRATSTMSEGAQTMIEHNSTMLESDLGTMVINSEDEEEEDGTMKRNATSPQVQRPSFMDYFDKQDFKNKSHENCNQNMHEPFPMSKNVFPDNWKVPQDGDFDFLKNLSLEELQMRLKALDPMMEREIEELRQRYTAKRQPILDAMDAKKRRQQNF

[8] = biological target: panel of 255 wild-type kinases (Homo sapiens, UniProt Q13557)
[9] = biological target: panel of 255 wild-type kinases (Homo sapiens, UniProt Q15418)
[10] = CDC7/ASK kinase assay, 1 µmol/L single concentration, ref DOI: 10.1158/1535-7163.MCT-18-0877
[11] = kinase IKKα, 1 µmol/L single concentration, ref DOI: 10.1158/1535-7163.MCT-18-0877
[12] = kinase DYRK3, 1 µmol/L single concentration, ref DOI: 10.1158/1535-7163.MCT-18-0877
[13] = MARK3, 1 µmol/L single concentration, ref DOI: 10.1158/1535-7163.MCT-18-0877
[14] = kinase CK1ε, 1 µmol/L single concentration, ref DOI: 10.1158/1535-7163.MCT-18-0877
[15] = kinase CK1γ2, 1 µmol/L single concentration, ref DOI: 10.1158/1535-7163.MCT-18-0877
[16] = MST2, 1 µmol/L single concentration, ref DOI: 10.1158/1535-7163.MCT-18-0877
[17] = CaMK2δ kinase assay, 1 µmol/L single concentration, ref DOI: 10.1158/1535-7163.MCT-18-0877
[18] = kinase RSK1, 1 µmol/L single concentration, ref DOI: 10.1158/1535-7163.MCT-18-0877
[19] = kinase IKKα, 1 µmol/L single concentration, ref DOI: 10.1371/journal.pone.0092146
[20] = kinase DYRK3, 1 µmol/L single concentration, ref DOI: 10.1371/journal.pone.0092146
[21] = MARK3, 1 µmol/L single concentration, ref DOI: 10.1371/journal.pone.0092146
[22] = kinase CK1ε, 1 µmol/L single concentration, ref DOI: 10.1371/journal.pone.0092146
[23] = MST2, 1 µmol/L single concentration, ref DOI: 10.1371/journal.pone.0092146
[24] = CaMK2δ kinase assay, 1 µmol/L single concentration, ref DOI: 10.1371/journal.pone.0092146
[25] = kinase RSK1, 1 µmol/L single concentration, ref DOI: 10.1371/journal.pone.0092146
[26] = CDC7/ASK kinase assay, 1 µmol/L single concentration, ref DOI: 10.1371/journal.pone.0092146
[27] = kinase CK1γ2, 1 µmol/L single concentration, ref DOI: 10.1371/journal.pone.0092146

Row | Structure (SMILES) | %-inhibition CDC7/ASK [1, 10] [%] | %-inhibition at 1 µmol/L, IKKα [2, 11] [%] | %-inhibition at 1 µmol/L, DYRK3 [3, 12] [%] | %-inhibition, MARK3 [4, 13] [%] | %-inhibition at 1 µmol/L, CK1ε [5, 14] [%] | %-inhibition at 1 µmol/L, CK1γ2 [6, 15] [%] | %-inhibition, MST2 [7, 16] [%] | %-inhibition CaMK2δ [8, 17] [%] | %-inhibition at 1 µmol/L, RSK1 [9, 18] [%] | %-inhibition at 1 µmol/L, DYRK3 [3, 20] [%] | %-inhibition, MARK3 [4, 21] [%] | %-inhibition at 1 µmol/L, CK1ε [5, 22] [%] | %-inhibition CaMK2δ [8, 24] [%] | also measured
1 | CC#CC(=O)N1CCC[C@H]1c1nc(-c2ccc(C(=O)Nc3ccccn3)cc2)c2c(N)nccn12 [acalabrutinib] | -1.64 | -1.45 | 0.353 | -2.57 | -10 | -7 | -3.46 | -3.53 | 3.57 | – | – | – | – | –
2 | CCc1cc2c(cc1N1CCC(N3CCOCC3)CC1)C(C)(C)c1[nH]c3cc(C#N)ccc3c1C2=O [alectinib] | -0.8 | -0.856 | 8.44 | 9 | 4.48 | -0.041 | -1.42 | 37 | 15 | – | – | – | – | –
3 | COc1cc(N2CCC(N3CCN(C)CC3)CC2)ccc1Nc1ncc(Cl)c(Nc2ccccc2P(C)(C)=O)n1 [brigatinib] | – | – | – | – | – | – | – | – | – | – | – | – | – | %-inhibition CDC7/ASK [1]: 0.868%; %-inhibition at 1 µmol/L, IKKα [2]: -0.856%; %-inhibition at 1 µmol/L, DYRK3 [3]: 3.23%; %-inhibition, MARK3 [4]: 99%; %-inhibition at 1 µmol/L, CK1ε [5]: 0.661%; %-inhibition at 1 µmol/L, CK1γ2 [6]: -2.5%; %-inhibition, MST2 [7]: 20%; %-inhibition CaMK2δ [8]: 101%; %-inhibition at 1 µmol/L, RSK1 [9]: 98%
4 | Cc1cc(Nc2ncc(Cl)c(Nc3ccccc3S(=O)(=O)C(C)C)n2)c(OC(C)C)cc1C1CCNCC1 [ceritinib] | -2.74 | -0.91 | -2.12 | 10 | 5 | 0.506 | 2.76 | 76 | 75 | – | – | – | – | –
5 | O=C(c1ccc(F)c(F)c1Nc1ccc(I)cc1F)N1CC(O)([C@@H]2CCCCN2)C1 [cobimetinib] | 5 | 1.07 | -3.62 | -1.51 | 2.44 | 2.37 | 1.8 | 1.1 | 1.39 | – | – | – | – | –
6 | C[C@@H](Oc1cc(-c2cnn(C3CCNCC3)c2)cnc1N)c1c(Cl)ccc(F)c1Cl [crizotinib] | – | – | – | – | – | – | – | – | – | 14 | 41 | 4 | 4 | %-inhibition at 1 µmol/L, IKKα [2, 19]: -1.78%; %-inhibition, MST2 [7, 23]: 13%; %-inhibition at 1 µmol/L, RSK1 [9, 25]: -5%
7 | CC(C)(C)c1nc(-c2cccc(NS(=O)(=O)c3c(F)cccc3F)c2F)c(-c2ccnc(N)n2)s1 [dabrafenib] | – | – | – | – | – | – | – | – | – | -5.68 | 4 | 10 | -0.23 | %-inhibition CDC7/ASK [1, 26]: -6%
8 | C=CC(=O)N1CCC[C@@H](n2nc(-c3ccc(Oc4ccccc4)cc3)c3c(N)ncnc32)C1 [ibrutinib] | -1 | 4.34 | -4 | -6 | 50 | 1 | 17 | -0.826 | 5.47 | – | – | – | – | –
9 | CO[C@@H]1[C@H](N(C)C(=O)c2ccccc2)C[C@H]2O[C@]1(C)n1c3ccccc3c3c4c(c5c6ccccc6n2c5c31)C(=O)NC4 [midostaurin] | 60 | -0.107 | – | – | – | -2.45 | 98 | – | 98 | – | – | – | – | –
10 | C=CC(=O)Nc1cc(Nc2nccc(-c3cn(C)c4ccccc34)n2)c(OC)cc1N(C)CCN(C)C [osimertinib] | 1.64 | 5 | 21 | 9 | 18 | 17 | – | 19 | 42 | – | – | – | – | –
11 | CC(=O)Nc1cccc(-n2c(=O)n(C3CC3)c(=O)c3c(Nc4ccc(I)cc4F)n(C)c(=O)c(C)c32)c1 [trametinib] | – | – | – | – | – | – | – | – | – | -10 | -3.21 | -5.38 | -2.19 | %-inhibition CDC7/ASK [1, 26]: -8%; %-inhibition at 1 µmol/L, IKKα [2, 19]: 2.63%; %-inhibition at 1 µmol/L, CK1γ2 [6, 27]: -2.15%; %-inhibition, MST2 [7, 23]: -3%; %-inhibition at 1 µmol/L, RSK1 [9, 25]: -10%
12 | CCCS(=O)(=O)Nc1ccc(F)c(C(=O)c2c[nH]c3ncc(-c4ccc(Cl)cc4)cc23)c1F [vemurafenib] | – | – | – | – | – | – | – | – | – | 5 | -0.226 | 2.46 | -0.235 | %-inhibition CDC7/ASK [1, 26]: -7%; %-inhibition at 1 µmol/L, IKKα [2, 19]: -1.89%; %-inhibition at 1 µmol/L, CK1γ2 [6, 27]: 0.506%; %-inhibition, MST2 [7, 23]: 24%; %-inhibition at 1 µmol/L, RSK1 [9, 25]: -1.32%
